Data published in ChEMBL document CHEMBL4359852, “Design, synthesis and biological evaluation of novel 5-(piperazin-1-yl)quinolin-2(1H)-one derivatives as potential chitin synthase inhibitors and antifungal agents” (Eur J Med Chem, 2019).
In brackets after ≈: the same amount, converted by molar mass.

Key:
Pseudomonas aeruginosa = assay: Antibacterial activity against Pseudomonas aeruginosa ATCC 9027 assessed as reduction in bacterial cell growth incubated for overnight by two-fold serial dilution method; format: functional
[1] = Inhibition of Saccharomyces cerevisiae CGMCC 2.145 chitin synthase using GlcNAc and UDP-GlcNAc as substrate incubated for 60 mins by microplate reader analysis
Candida albicans = assay: Antifungal activity against Candida albicans ATCC 76615 assessed as reduction in fungal cell growth incubated for 48 hrs by two-fold serial dilution method; format: functional; conditions: ATCC 76615, 48 h
Cryptococcus neoformans = assay: Antifungal activity against Cryptococcus neoformans ATCC 32719 assessed as reduction in fungal cell growth incubated for 48 hrs by two-fold serial dilution method; format: functional; conditions: ATCC 32719, 48 h
Aspergillus flavus = assay: Antifungal activity against Aspergillus flavus ATCC 16870 assessed as reduction in fungal cell growth incubated for 48 hrs by two-fold serial dilution method; format: functional; conditions: ATCC 16870, 48 h
Staphylococcus aureus [2] = assay: Antibacterial activity against Staphylococcus aureus ATCC 25923 assessed as reduction in bacterial cell growth incubated for overnight by two-fold serial dilution method; format: functional
Staphylococcus aureus [3] = assay: Antibacterial activity against methicillin resistant Staphylococcus aureus N 315 assessed as reduction in bacterial cell growth incubated for overnight by two-fold serial dilution method; format: functional
Bacillus subtilis = assay: Antibacterial activity against Bacillus subtilis ATCC 6633 assessed as reduction in bacterial cell growth incubated for overnight by two-fold serial dilution method; format: functional
Proteus vulgaris = assay: Antibacterial activity against Bacillus proteus ATCC 8427 assessed as reduction in bacterial cell growth incubated for overnight by two-fold serial dilution method; format: functional
Escherichia coli = assay: Antibacterial activity against Escherichia coli JM109 assessed as reduction in bacterial cell growth incubated for overnight by two-fold serial dilution method; format: functional
Saccharomyces cerevisiae = assay: Inhibition of Saccharomyces cerevisiae CGMCC 2.145 chitin synthase using GlcNAc and UDP-GlcNAc as substrate at 300 ug/ml incubated for 60 mins by microplate reader analysis relative to control

Row | Structure (SMILES) | MIC (Pseudomonas aeruginosa) [µg/mL] | IC50 [1] [µM] | MIC (Candida albicans) [µg/mL] | MIC (Cryptococcus neoformans) [µg/mL] | MIC (Aspergillus flavus) [µg/mL] | MIC (Staphylococcus aureus [2]) [µg/mL] | MIC (Staphylococcus aureus [3]) [µg/mL] | MIC (Bacillus subtilis) [µg/mL] | MIC (Proteus vulgaris) [µg/mL] | MIC (Escherichia coli) [µg/mL] | inhibition (Saccharomyces cerevisiae) [%]
1 | Cl.O=C1CCc2c(cccc2N2CCN(C[C@@H](O)CNc3ccc(Br)cc3)CC2)N1 | 128 | 350 | 64 | 128 | 128 | 64 | 128 | 64 | 128 | 256 | 
2 | Cl.O=C1CCc2c(cccc2N2CCN(C[C@@H](O)CNc3ccccc3)CC2)N1 | 128 | 190 | 128 | 128 | 128 | 128 | 128 | 128 | 256 | 128 | 
3 | Cl.O=C1CCc2c(cccc2N2CCN(C[C@H](O)CNc3ccccc3)CC2)N1 | 256 | 170 | 64 | 256 | 128 | 256 | 128 | 256 | 128 | 256 | 
4 | Cl.O=C1CCc2c(cccc2N2CCN(C[C@H](O)CNc3ccc(Cl)cc3)CC2)N1 | 256 | 380 | 32 | 256 | 128 | 128 | 128 | 128 | 128 | 128 | 
5 | CCCCNC[C@@H](O)CN1CCN(c2cccc3c2CCC(=O)N3)CC1.Cl | 256 | 310 | 128 | 128 | 256 | 256 | 256 | 256 | 256 | 256 | 
6 | CCCCNC[C@H](O)CN1CCN(c2cccc3c2CCC(=O)N3)CC1.Cl | 128 | 340 | 64 | 256 | 512 | 256 | 256 | 512 | 256 | 128 | 
7 | Cl.O=C1CCc2c(cccc2N2CCN(C[C@@H](O)CNc3ccc(Cl)cc3)CC2)N1 | 256 | 360 | 32 | 128 | 128 | 64 | 64 | 64 | 128 | 128 | 
8 | Cl.O=C1CCc2c(cccc2N2CCN(C[C@H](O)CNc3ccc(Br)cc3)CC2)N1 | 128 | 330 | 128 | 128 | 64 | 64 | 64 | 128 | 256 | 128 | 
9 | COc1ccc(NC[C@H](O)CN2CCN(c3cccc4c3CCC(=O)N4)CC2)cc1.Cl | 128 | 120 | 32 | 256 | 128 | 64 | 128 | 256 | 256 | 32 | 
10 | Cl.O=C1CCc2c(cccc2N2CCN(CC(O)Cn3ccnc3)CC2)N1 (racemic) | 128 | 470 | 64 | 256 | 256 | 64 | 128 | 64 | 128 | 128 | 53.3
11 | Cl.O=C1CCc2c(cccc2N2CCN(CC(O)CNc3ccccc3)CC2)N1 (racemic) | 256 | 150 | 64 | 128 | 128 | 128 | 128 | 128 | 128 | 256 | 62.7
12 | Cl.O=C1CCc2c(cccc2N2CCN(CC(O)CNc3ccccc3Cl)CC2)N1 (racemic) | 256 | 470 | 32 | 512 | 128 | 64 | 128 | 128 | 64 | 128 | 52.4
13 | Cl.O=C1CCc2c(cccc2N2CCN(CC(O)CNc3ccc(Cl)cc3)CC2)N1 (racemic) | 128 | 360 | 32 | 256 | 256 | 64 | 64 | 64 | 128 | 128 | 59.3
14 | Cl.O=C1CCc2c(cccc2N2CCN(CC(O)CNc3ccc(Br)cc3)CC2)N1 (racemic) | 256 | 380 | 64 | 256 | 64 | 64 | 128 | 64 | 128 | 256 | 55.4
15 | COc1ccc(NCC(O)CN2CCN(c3cccc4c3CCC(=O)N4)CC2)cc1.Cl (racemic) | 128 | 100 | 32 | 128 | 128 | 64 | 128 | 128 | 256 | 64 | 84.9
16 | CCCCNCC(O)CN1CCN(c2cccc3c2CCC(=O)N3)CC1.Cl (racemic) | 256 | 370 | 64 | 256 | 256 | 256 | 128 | 256 | 256 | 256 | 63.7
17 | NC(=O)OC[C@H](O)[C@@H](O)[C@H](N)C(=O)N[C@H](C(=O)O)[C@H]1O[C@@H](n2cc(CO)c(=O)[nH]c2=O)[C@H](O)[C@@H]1O [POLYOXIN B] |  | 180 | 32 (≈ 63.1 µM) | 8 (≈ 15.8 µM) | 32 (≈ 63.1 µM) |  |  |  |  |  | 85.1
